Measured values as given in patent US20130158063A1, “Compounds, Compositions and Methods Related to PPAR Antagonists” (GEORGETOWN UNIVERSITY, priority 2010, published 2013).
“Also recorded” adds a separate entry of the source.

Assays:
PPARγ [1] = target: T1, PPARγ (Homo sapiens, UniProt P37231); assay: Fluorescent Polarization (FP) binding assay with corepressor peptides, PPARγ; settings: for EC50: read-out: Binding assay EC50, γ
T1 construct: purchased Cayman Chemicals
T1 sequence (P37231 238-503 limits assumed): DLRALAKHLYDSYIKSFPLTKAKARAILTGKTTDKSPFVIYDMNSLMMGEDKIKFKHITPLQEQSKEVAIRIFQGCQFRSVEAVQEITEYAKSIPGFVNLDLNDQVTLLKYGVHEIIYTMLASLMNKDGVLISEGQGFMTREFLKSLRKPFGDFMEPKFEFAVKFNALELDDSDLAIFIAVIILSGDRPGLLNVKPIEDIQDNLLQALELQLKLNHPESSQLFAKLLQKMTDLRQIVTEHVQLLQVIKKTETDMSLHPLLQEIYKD
Description: (§1) For PPARγ screening, a fluorescent ligand supplied by Cayman Chemicals was also used. All compounds were dissolved in DMSO as 10 mM stock solutions and the final DMSO content in the assay was <1%. A TECAN Ultra 485 multi-functional microplate reader and GraphPad prism 4 software were used for measurements and analysis, respectively.
(§2) PPAR antagonists are expected to enhance the affinities of the corepressor peptides, and therefore, FP should increase as the compound concentration increases. Agonists would be expected to weaken the affinity of the same co-repressor peptide. Although this effect occurs for PPARγ, the dissociation of corepressor peptides varies for PPARα and PPARδ due to altered presentations of the overlapping coactivator/corepressor binding surfaces (Stanley T. B. et al. Biochemistry 42:9278-87, 2003). Compounds were screened initially against PPARγ and PPARδ at 1 and 100 μM. If binding was observed, titration experiments from 10 nM to 100 μM were carried out in triplicate with all three PPARs. […] For screening, either enhancement or weakening of FP was considered active.
(§3) Virtual screening for PPARγ was conducted against 56,000 compounds from the Maybridge library that targeted the ligand binding domain (LBD) of PPARγ, and 10 conformations of each compound were docked to the LBD using Autdock4 software (Scripps Institute). Sixty of the top ranked compounds were ordered from Maybridge, and 58 were available for evaluation. Fluorescent Polarization (FP) assays were established with the tagged co-repressor peptides NCoR1 and SMRT, the recombinant PPARα and PPARγ ligand-binding domains and full-length PPARδ. […] Sd-107 and its analogs are disclosed herein. The chemical structure is shown below.

PPARγ [2] = target: T2, PPARγ (Mus musculus, UniProt P37238); assay: PPAR reporter assay in 293T cells, PPARγ (agonist GW7845); assay type: cell-based; settings: HEK-293T, 1 μM agonist GW7845, 293T cells, read-out: Reporter assay (% inhibition), γ; for inhibition at 1 µM: 1 μM compound; for inhibition at 10 µM: 10 μM compound; for inhibition at 25 µM: 25 μM compound
T2 construct: expressed in transfected cells; host or cells: 293T cells
T2 sequence (P37238 1-505): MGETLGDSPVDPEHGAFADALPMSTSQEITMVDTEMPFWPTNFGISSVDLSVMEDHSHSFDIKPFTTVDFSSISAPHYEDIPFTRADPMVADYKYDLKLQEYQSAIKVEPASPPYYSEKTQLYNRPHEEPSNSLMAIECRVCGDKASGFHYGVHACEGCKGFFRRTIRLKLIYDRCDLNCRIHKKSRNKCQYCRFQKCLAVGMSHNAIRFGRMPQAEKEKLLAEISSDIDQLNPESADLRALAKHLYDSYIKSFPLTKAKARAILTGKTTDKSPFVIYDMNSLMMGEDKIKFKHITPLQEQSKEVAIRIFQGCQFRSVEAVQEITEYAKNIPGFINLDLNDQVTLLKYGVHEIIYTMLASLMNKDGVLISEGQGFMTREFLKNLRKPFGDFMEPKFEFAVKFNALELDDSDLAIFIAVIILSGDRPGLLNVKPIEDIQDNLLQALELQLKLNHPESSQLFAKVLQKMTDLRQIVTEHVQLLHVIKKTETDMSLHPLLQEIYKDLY

PPARα [3] = target: T3, PPARα (Homo sapiens, UniProt Q07869); assay: Fluorescent Polarization (FP) binding assay with corepressor peptides, PPARα; settings: Nb = no binding
T3 construct: purchased Cayman Chemicals
T3 sequence (Q07869 239-466 limits assumed): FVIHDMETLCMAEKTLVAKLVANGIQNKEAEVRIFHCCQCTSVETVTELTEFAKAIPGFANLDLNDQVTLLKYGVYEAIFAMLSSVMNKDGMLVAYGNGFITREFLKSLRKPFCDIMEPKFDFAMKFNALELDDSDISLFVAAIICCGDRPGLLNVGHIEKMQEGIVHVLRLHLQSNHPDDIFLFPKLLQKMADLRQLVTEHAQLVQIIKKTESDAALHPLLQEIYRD
Description: as §1, §2, §3

PPARα [4] = assay: PPAR reporter assay in 293T cells, PPARα (agonist WY14643); assay type: cell-based; settings: 1 μM agonist WY14643
PPARδ [5] = target: T4, PPARδ (Homo sapiens, UniProt Q03181); assay: Fluorescent Polarization (FP) binding assay with corepressor peptides, PPARδ; settings: Nb = no binding
T4 construct: purchased Cayman Chemicals
T4 sequence (Q03181 1-441): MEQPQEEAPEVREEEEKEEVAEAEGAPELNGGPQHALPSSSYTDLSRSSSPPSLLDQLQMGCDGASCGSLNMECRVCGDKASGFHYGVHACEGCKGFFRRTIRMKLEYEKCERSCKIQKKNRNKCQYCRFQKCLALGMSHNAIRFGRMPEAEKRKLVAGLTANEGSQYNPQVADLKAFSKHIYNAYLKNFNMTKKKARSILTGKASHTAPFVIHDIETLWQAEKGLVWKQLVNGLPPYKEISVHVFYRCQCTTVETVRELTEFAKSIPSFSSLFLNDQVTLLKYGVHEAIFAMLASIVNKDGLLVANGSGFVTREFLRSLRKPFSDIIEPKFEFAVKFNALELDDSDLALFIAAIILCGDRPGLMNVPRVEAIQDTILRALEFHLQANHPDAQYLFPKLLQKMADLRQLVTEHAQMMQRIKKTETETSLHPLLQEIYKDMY
Description: as §1, §2, §3

PPARδ [6] = assay: PPAR reporter assay in 293T cells, PPARδ (agonist GW501516); assay type: cell-based; settings: 1 μM agonist GW501516
PPARα, PPARγ, PPARδ = assay: PPAR reporter assays, isotype profile over the three PPARs; settings: for PPAR inhibitor type (Table 1): from reporter data
PPARδ [7] = target: T4, PPARδ; settings: cited from earlier work
[8] = tested on: Mouse mammary tumor cell lines MC, 437T, 105T and 34T; Comma1D mammary epithelial cell line; assay: Cytotoxicity against mammary cell lines; assay type: cell-based; settings: 0-25 μM BTB07995, with and without GW501516
Text: Mouse mammary tumor cell lines MC, 437T, 105T and 34T were generated from primary DMBA-induced tumors in wild-type FVB, MMTV-Pax8PPARγ transgenic, Sca-1 null and Sca-1+/EGFP mice. Comma1D is an immortalized mammary epithelial cell line.

## CC(=O)Oc1ccc(C(=O)NN(C(=O)c2ccc(OC(C)=O)cc2)S(=O)(=O)c2ccc(C(C)(C)C)cc2)cc1 [YL-1-87]
PPARγ [1]; FP assay, Nb = no binding
  EC50: 0.41 µM
PPARγ [2]
  inhibition at 1 µM: 19%
  inhibition at 10 µM: 28%
  inhibition at 25 µM: 79%
PPARα [3]
  Binding assay EC50, α: nb
PPARα [4]; 1 μM compound
  Reporter assay (% inhibition), α: 0%
PPARα [4]; 10 μM compound
  Reporter assay (% inhibition), α: 0%
PPARα [4]; 25 μM compound
  Reporter assay (% inhibition), α: 52%
PPARδ [5]
  Binding assay EC50, δ: δ nb
PPARδ [6]; 1 μM compound
  Reporter assay (% inhibition), δ: δ 18%
PPARδ [6]; 10 μM compound
  Reporter assay (% inhibition), δ: 23%
PPARδ [6]; 25 μM compound
  Reporter assay (% inhibition), δ: 60%
PPARα, PPARγ, PPARδ
  PPAR inhibitor type (Table 1): Pan inhibitor

## COc1ccc(S(=O)(=O)N(C(=O)c2ccc(Cl)cc2)N(C(=O)c2ccc(Cl)cc2)C(=O)c2ccc(Cl)cc2)cc1 [YL-1-38-1]
PPARγ [1]; FIG. 3
  Effect on FP of corepressor peptide, PPARγ: weakened the affinity of the peptide to PPARγ
PPARγ [1]; FP assay, Nb = no binding
  EC50: 40.8 µM
PPARγ [1]; titration with all three PPARs
  Selectivity of binding in FP assay: selective binding to PPARγ
PPARγ [2]
  inhibition at 1 µM: 0%
  inhibition at 10 µM: 50%
  inhibition at 25 µM: 75%
PPARγ [2]; 2.5 μM compound
  inhibition at 2.5 µM: 16%
PPARα [3]
  Binding assay EC50, α: nb
PPARα [4]; 1 μM compound
  Reporter assay (% inhibition), α: 0%
PPARα [4]; 2.5 μM compound
  Reporter assay (% inhibition), α: 0%
PPARα [4]; 10 μM compound
  Reporter assay (% inhibition), α: 15%
PPARα [4]; 25 μM compound
  Reporter assay (% inhibition), α: 40%
PPARδ [5]
  Binding assay EC50, δ: δ nb
PPARδ [6]; 1 μM compound
  Reporter assay (% inhibition), δ: 0%
PPARδ [6]; 2.5 μM compound
  Reporter assay (% inhibition), δ: 0%
PPARδ [6]; 10 μM compound
  Reporter assay (% inhibition), δ: 0%
PPARδ [6]; 25 μM compound
  Reporter assay (% inhibition), δ: 47%
PPARα, PPARγ, PPARδ
  PPAR inhibitor type (Table 1): Pan inhibitor

## O=C(NN(C(=O)c1ccc(Cl)cc1)S(=O)(=O)c1ccc(C(F)(F)F)cc1)c1ccc(Cl)cc1 [YL-1-81]
PPARγ [1]; FP assay, Nb = no binding
  EC50: 15.2 µM
PPARγ [2]
  inhibition at 25 µM: 32%
PPARα [3]
  Binding assay EC50, α: nb
PPARα [4]; 25 μM compound
  Reporter assay (% inhibition), α: 8%
PPARδ [5]
  Binding assay EC50, δ: δ nb
PPARδ [6]; 25 μM compound
  Reporter assay (% inhibition), δ: 46%
PPARα, PPARγ, PPARδ
  PPAR inhibitor type (Table 1): PPARγ/δ inhibitor

## CC(C)(C)c1ccc(S(=O)(=O)N(NC(=O)c2ccc(O)cc2)C(=O)c2ccc(O)cc2)cc1 [YL-1-88]
PPARγ [1]; FP assay, Nb = no binding
  EC50: 22.3 µM
PPARγ [2]
  inhibition at 1 µM: 0%
  inhibition at 10 µM: 0%
  inhibition at 25 µM: 10%
PPARα [3]
  Binding assay EC50, α: nb
PPARα [4]; 1 μM compound
  Reporter assay (% inhibition), α: 0%
PPARα [4]; 10 μM compound
  Reporter assay (% inhibition), α: 0%
PPARα [4]; 25 μM compound
  Reporter assay (% inhibition), α: 0%
PPARδ [5]
  Binding assay EC50, δ: δ nb
PPARδ [6]; 1 μM compound
  Reporter assay (% inhibition), δ: 0%
PPARδ [6]; 10 μM compound
  Reporter assay (% inhibition), δ: 14%
PPARδ [6]; 25 μM compound
  Reporter assay (% inhibition), δ: 40%
PPARα, PPARγ, PPARδ
  PPAR inhibitor type (Table 1): PPARδ inhibitor

## O=C(NCCS(=O)(=O)c1ccc(C(F)(F)F)cn1)c1ccc(Cl)cc1 [BTB07995, reference compound]
PPARδ [7]
  PPARδ ligand potency and selectivity (literature): potent and selective ligand for PPARδ
[8]
  Cytotoxicity to mouse mammary cell lines: not cytotoxic
PPARα, PPARγ, PPARδ; 293T cells, 24 hr, absence of specific ligand
  Agonist activity in Gal4-mPPAR reporter assays: not an agonist for PPARα, PPARδ and PPARγ
PPARα, PPARγ, PPARδ; inhibition of activation by 1 μM agonist
  PPAR isotype selectivity in reporter assays: PPARδ selectivity at lower concentrations; also recorded: selective antagonist of PPARδ

## CC(C)(C)c1ccc(S(=O)(=O)N(NC(=O)c2ccc(Cl)cc2)C(=O)c2ccc(Cl)cc2)cc1 [YL-1-68-2]
PPARγ [1]; FP assay, Nb = no binding
  EC50: 1.4 µM
PPARγ [2]
  inhibition at 1 µM: 0%
  inhibition at 10 µM: 23%
  inhibition at 25 µM: 67%
PPARα [3]
  Binding assay EC50, α: nb
PPARα [4]; 1 μM compound
  Reporter assay (% inhibition), α: 16%
PPARα [4]; 10 μM compound
  Reporter assay (% inhibition), α: 23%
PPARα [4]; 25 μM compound
  Reporter assay (% inhibition), α: 57%
PPARδ [5]
  Binding assay EC50, δ: δ nb
PPARδ [6]; 1 μM compound
  Reporter assay (% inhibition), δ: 0%
PPARδ [6]; 10 μM compound
  Reporter assay (% inhibition), δ: 18%
PPARδ [6]; 25 μM compound
  Reporter assay (% inhibition), δ: 46%
PPARα, PPARγ, PPARδ
  PPAR inhibitor type (Table 1): Pan inhibitor

## CC(C)(C)c1ccc(C(=O)N(N)S(=O)(=O)c2ccc(C(C)(C)C)cc2)cc1 [YL-1-69]
PPARγ [1]; FP assay, Nb = no binding
  Binding assay EC50, γ: α nb γ nb
PPARγ [2]
  inhibition at 1 µM: 0%
  inhibition at 10 µM: 25%
  inhibition at 25 µM: 50%
PPARα [3]
  Binding assay EC50, α: α nb γ nb
PPARα [4]; 1 μM compound
  Reporter assay (% inhibition), α: 0%
PPARα [4]; 10 μM compound
  Reporter assay (% inhibition), α: 15%
PPARα [4]; 25 μM compound
  Reporter assay (% inhibition), α: 20%
PPARδ [5]
  Binding assay EC50, δ: δ nb
PPARδ [6]; 1 μM compound
  Reporter assay (% inhibition), δ: 0%
PPARδ [6]; 10 μM compound
  Reporter assay (% inhibition), δ: 10%
PPARδ [6]; 25 μM compound
  Reporter assay (% inhibition), δ: 20%
PPARα, PPARγ, PPARδ
  PPAR inhibitor type (Table 1): Pan inhibitor
